The text below walks through data of patent publication US7342137B1, “Cyclohexenone compounds from Antrodia camphorata and application thereof” (Golden Biotechnology Corporation, priority 2007, dated 2008).

Common to all, as to format: cell-based
In experiment [1] the test system is human prostate cancer cells, DU-145. As to the kind of experiment: In vitro Taxol add-on study (MTT), prostate cancer cells DU-145. The settings on record: Homo sapiens; DU-145 (0.0043 μg/ml Taxol + formula 2) as printed in Table 6. The procedure: The experiment was also carried out according to NCI anti-cancer drug screen in vitro model. The human prostate cancer cells, LNCaP and DU-145 were separately cultivated in media containing fetal calf serum for 24 hours. The proliferated cells were washed once with PBS, then treated with 1× trypsin-EDTA and centrifuged at 1200 rpm for 5 minutes. The supernatant was discarded and the cell pellet was resuspended in 10 ml of fresh culture medium by gently shaking. The LNCaP cells were treated with 0.0017 μg/ml of Taxol for 72 hours and DU-145 cells were treated with 0.0043 μg/ml of Taxol for 72 hours before placing in a 96-well plate. 4-hydroxy-2,3-dimethoxy-6-methyl-5(3,7,11-trimethyl-dodeca-2,6,10-trienyl)-cyclohex-2-enone obtained from example 1 were added respectively into each of the 96 wells at the following concentrations: 0 μg/ml (the control group); 30, 10, 3, 1, 0.3, 0.1 and 0.03 μg/ml (the experiment group). The cells were incubated at 37° C. in a 5% CO2 incubator for 48 hours. MTT was added in a concentration of 2.5 mg/ml into each well in dark and reacted for 4 hours, followed by the addition of 100 μl of lysis buffer to stop the reaction. The plates were read on an ELISA reader at wavelength of 570 nm to determine the survival rates.

Experiment [2] concerns human breast-cancer cells, MCF-7. As to the kind of experiment: In vitro survival assay (MTT), breast cancer cells MCF-7. The settings on record: MCF7, 48 hours incubation. The procedure: (§1) The NCI anti-cancer drug screen model was adopted to test the anti-cancer effect of the compound from example 1 in the invention. The isolated compound of 4-hydroxy-2,3-dimethoxy-6-methyl-5(3,7,11-trimethyl-dodeca-2,6,10-trienyl)-cyclohex-2-enone from example 1 was added into the culture media of human breast-cancer cells, MCF-7 or MDA-MB-231, for tumor cell survival assay. This assay can be tested with 3-[4,5-dimethylthiazol-2-yl]2,5-diphenyltetrazolium bromide (MTT) assay, which is commonly used to determine cell proliferation, percent of viable cells, and cytotoxicity. MTT is a yellow dye, which can be absorbed by the living cells and be reduced to purplish blue formazan crystals by succinate tetrazolium reductase in mitochondria. Formazan formation can therefore be used to assess and determine the survival rate of cells.
(§2) The human breast-cancer cells, MCF-7 and MDA-MB-231 were separately cultivated in media containing fetal calf serum for 24 hours. The proliferated cells were washed once with PBS, then treated with 1× trypsin-EDTA and centrifuged at 1200 rpm for 5 minutes. The supernatant was discarded and the cell pellet was resuspended in 10 ml of fresh culture medium by gently shaking. The cells were placed in a 96-well plate. […] The plates were read on an ELISA reader at wavelength of 570 nm to determine the survival rates.

For experiment [3], the system named is human hepatic-cancer cells, Hep G2. As to the kind of experiment: In vitro survival assay (MTT), hepatic cancer cells Hep G2. The settings on record: HepG2, 48 hours incubation. The method, then: The NCI anti-cancer drug screen model was also adopted to test the anti-cancer effect of the compound isolated from example 1 in the present invention. The isolated compound of 4-hydroxy-2,3-dimethoxy-6-methyl-5(3,7,11-trimethyl-dodeca-2,6,10-trienyl)-cyclohex-2-enone from example 1 was added into the culture media of human hepatic-cancer cells, Hep 3B or Hep G2, for tumor cell survival assay.
The human hepatic-cancer cells, Hep 3B and Hep G2, were separately cultivated in media containing fetal calf serum for 24 hours. The proliferated cells were washed once with PBS, then treated with 1× trypsin-EDTA and centrifuged at 1200 rpm for 5 minutes. The supernatant was discarded and the cell pellet was resuspended in 10 ml of fresh culture medium by gently shaking. The cells were placed in a 96-well plate. Ethanol extracts of Antrodia camphorata (the control group, total extracts of Antrodia camphorata without purification) were added into each of the 96 wells at the following concentrations: 30, 10, 3, 1, 0.3, 0.1 and 0.03 μg/ml, respectively, while 4-hydroxy-2,3-dimethoxy-6-methyl-5(3,7,11-trimethyl-dodeca-2,6,10-trienyl)-cyclohex-2-enone (the experiment group) were added into each of the 96 wells at the following concentrations: 30, 10, 3, 1, 0.3, 0.1 and 0.03 μg/ml, respectively. […] The plates were read on an ELISA reader at wavelength of 570 nm to determine the survival rates.

Experiment [4] has as its system human breast-cancer cells, MDA-MB-231. Briefly: In vitro survival assay (MTT), breast cancer cells MDA-MB-231. The following applies: 48 hours incubation. The procedure: as §1, §2
Experiment [5] concerns human breast-cancer cells, MCF-7. As to the kind of experiment: In vitro Taxol add-on study (MTT), MCF-7. The following applies: Homo sapiens, MCF7, 0.0017 μg/ml Taxol + formula 2. The procedure: The experiment was also carried out according to NCI anti-cancer drug screen in vitro model. The human breast-cancer cells, MCF-7 and MDA-MB-231 were separately cultivated in media containing fetal calf serum for 24 hours. The proliferated cells were washed once with PBS, then treated with 1× trypsin-EDTA and centrifuged at 1200 rpm for 5 minutes. The supernatant was discarded and the cell pellet was resuspended in 10 ml of fresh culture medium by gently shaking. The cells were placed in a 96-well plate after 0.0017 μg/ml Taxol was added and treated for 72 hours. 4-hydroxy-2,3-dimethoxy-6-methyl-5(3,7,11-trimethyl-dodeca-2,6,10-trienyl)-cyclohex-2-enone obtained from example 1 were added respectively into each of the 96 wells at the following concentrations: 0 μg/ml (the control group); 30, 10, 3, 1, 0.3, 0.1 and 0.03 μg/ml (the experiment group). The cells were incubated at 37° C. in a 5% CO2 incubator for 48 hours. MTT was added in a concentration of 2.5 mg/ml into each well in dark and reacted for 4 hours, followed by the addition of 100 μl of lysis buffer to terminate the reaction. The plates were read on an ELISA reader at wavelength of 570 nm to determine the survival rates.

One may read the IC50 as the concentration needed to halve the response being measured. In the case of `COC1=C(OC)C(O)C(C/C=C(\C)CC/C=C(\C)CCC=C(C)C)C(C)C1=O` (centres unmarked) [formula 2, 4-hydroxy-2,3-dimethoxy-6-methyl-5(3,7,11-trimethyl-dodeca-2,6,10-trienyl)-cyclohex-2-enone], the IC50 in experiment [1] was determined as 0.515 µg/mL; in experiment [2], 0.852 µg/mL; in experiment [3] it was 1.68 µg/mL; in experiment [4], 1.03 µg/mL; in experiment [5], 0.009 µg/mL.
